GI50 and TGI data for 6 compounds are collected here from PubChem BioAssay (NCI).

Holding throughout (test): NCI tumour cell line growth inhibition, 48 h
The test system of assay [1] is ACHN renal.
The subject of assay [2] is UACC-62 melanoma.
Assay [3] deals with MCF7 breast.
For assay [4], the system named is SW-620 colon.
The subject of assay [5] is KM12 colon.
For assay [6], the system named is SN12C renal.
Assay [7] deals with DU-145 prostate.
Assay [8] concerns NCI-H226 lung.
In assay [9] the test system is PC-3 prostate.
For assay [10], the system named is OVCAR-3 ovarian.

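1) Cells in 96-well plates. 2) Compound, 48 h, 5 concentrations. 3) Linear interpolation between surrounding doses. 4) Unreached endpoint = highest concentration. The concentration for 50% growth inhibition is given as GI50. Definition used: TGI = concentration required for complete inhibition of growth.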

`Cc1cccc2c(N=Nc3ccc(S(N)(=O)=O)cc3)c(O)[nH]c12`: the GI50 in assay [1], in assay [2], in [3], in [4], in [5] and in assay [6] was greater than 25 µM each time. Also, the GI50 in assay [7], in [8], in assay [9] and in assay [10] was greater than 25 µM each time. Moreover, the TGI in assay [1], in assay [2], in assay [3], in assay [4], in assay [5] and in assay [6] was greater than 25 µM throughout. Besides, the TGI in [7], in assay [8], in assay [9] and in assay [10] was greater than 25 µM throughout.
Turning to `Clc1cc(Cl)c(Cl)c(-c2nc(-c3cccnc3)cs2)c1`, the GI50 is 22.2 µM in assay [1]; 24 µM in assay [2]; 10.4 µM in [3]; 9.34 µM in assay [4]; 51.4 µM in [5]; 24.9 µM in assay [6]. For the same compound, the GI50 is 2.55 µM in assay [7], 27.4 µM in assay [8], 59.4 µM in assay [9] and 16.2 µM in [10]. In addition, the TGI in assay [1] was 72.3 µM; in assay [2], 73.3 µM; in [3], greater than 100 µM; in assay [4] it was 23.6 µM; in assay [5], greater than 100 µM; in assay [6] it was greater than 100 µM. Moreover, the TGI in [7] is 96.2 µM; in assay [8], 85.8 µM; in [9] it was greater than 100 µM; in [10], 81.9 µM.
With `Cc1n[nH]c(=S)n1/N=C/c1ccc(F)c(Oc2ccccc2)c1`, the GI50 in [1] is greater than 100 µM; in [2], 52.4 µM; in assay [3] it was 41.4 µM; in assay [4], 36.5 µM; in assay [5], 41.3 µM; in assay [6], 95.6 µM. The GI50 in assay [7] was 49.5 µM; in assay [8], greater than 100 µM; in assay [9], 79.6 µM; in assay [10], 44.6 µM. The TGI in [1], in assay [2], in assay [3], in assay [4], in assay [5] and in assay [6] was greater than 100 µM in each case. Further, the TGI in assay [7], in [8], in [9] and in [10] was greater than 100 µM throughout.
`COc1cc(/C=C/C(=O)c2ccc(Nc3ncnc4ccccc34)cc2)cc(OC)c1`: the GI50 is 13.9 µM in assay [1]; 7.7 µM in [2]; 1.84 µM in [3]; 2.38 µM in [4]; 1.77 µM in [5]; 7.3 µM in assay [6]. For the same compound, the GI50 in assay [7] is 6.71 µM; in assay [8], 2.45 µM; in [9], 3.36 µM; in assay [10], 4 µM. Moreover, the TGI is 63.9 µM in [1]; 27.7 µM in [2]; 5.79 µM in assay [3]; 9.68 µM in assay [4]; 5.38 µM in assay [5]; 38 µM in [6]. Also, the TGI in assay [7] worked out at 22.2 µM; in assay [8], 8.91 µM; in [9] it was 31.6 µM; in assay [10], 13.5 µM.
Consider `COc1ccc(/C(C)=C(\c2ccc(Cl)cc2)c2ccc(OCCN3CCCC3)cc2)cc1F`, for which the GI50 in [1] was 4.06 µM; in [2], 3.1 µM; in assay [3], 2.41 µM; in [4], 2.5 µM; in assay [5] it was 1.26 µM; in assay [6], 3.55 µM. The GI50 in assay [7] was 3.9 µM; in [8], 4.47 µM; in [9] it was 3.04 µM; in [10], 3.93 µM. The TGI was 7.44 µM in assay [1]; 6.32 µM in assay [2]; 6.15 µM in assay [3]; 5.68 µM in [4]; 4.5 µM in assay [5]; 7.12 µM in [6]. The TGI came out at 8.28 µM in assay [7], 8.88 µM in assay [8], 6.71 µM in assay [9] and 8.38 µM in assay [10].
`COc1cc(C#N)cc(OC)c1OCCOCCOc1c(OC)cc(C#N)cc1OC`: the GI50 in [1] was greater than 100 µM; in assay [2] it was 33.1 µM; in assay [3], 63.4 µM; in assay [4] it was greater than 100 µM; in assay [5], 51.7 µM; in assay [6], greater than 100 µM. Further, the GI50 in [7] was greater than 100 µM; in [8], 81.2 µM; in [9], 31.9 µM; in assay [10], greater than 100 µM. For the same compound, the TGI in assay [1], in assay [2], in assay [3], in assay [4], in assay [5] and in assay [6] was greater than 100 µM each time. Besides, the TGI in [7], in assay [8], in [9] and in assay [10] was greater than 100 µM each time.
